Assays:
Type in all cases: in vivo
[1] = system: Echinochloa oryzacola Vasing.; experiment: Test Example 1: herbicidal activity, application before weed generation in submerged conditions (symbol A); conditions: application herbicide amount 320 g/ha
Procedure, shortened: (§1)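 Weeds are sown into submerged alluvial soil alongside transplanted 2.5-leaf rice, and the compound, as an emulsion diluted to a set rate, is applied onto the water before emergence. Rating on the 0–5 herbicidal-ratio scale follows 3 weeks of greenhouse growth at 25–30 °C.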

Scirpus juncoides [2] = experiment: Test Example 1: herbicidal activity, application before weed generation in submerged conditions (symbol B); conditions: application herbicide amount 320 g/ha
Procedure, shortened: as §1

Monochoria vaginalis [3] = experiment: Test Example 1: herbicidal activity, application before weed generation in submerged conditions (symbol C); conditions: application herbicide amount 320 g/ha
Procedure, shortened: as §1

transplanted rice plant = experiment: Test Example 1: effect on crop, application before weed generation in submerged conditions (symbol a); conditions: application herbicide amount 320 g/ha
Procedure, shortened: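 Alluvial soil pots flooded to 4 cm water, sown with Echinochloa oryzacola, Scirpus juncoides and Monochoria vaginalis, then transplanted with 2.5 leaf stage rice seedlings; pre-emergence application. Greenhouse 25° C. to 30° C.; scored 0–5 by herbicidal ratio 3 weeks after application.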

[4] = system: Echinochloa oryzacola Vasing.; experiment: Test Example 2: herbicidal activity, application during weed generation in submerged conditions (symbol A); conditions: Table 23; application herbicide amount 320 g/ha; grade 0-5 by criteria of Test Example 1
Procedure, shortened: (§2)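 Scoring of herbicidal effect took place 3 weeks after treatment, using the criteria of the earlier test. Treatment was water-surface application of diluted emulsifiable compound at a set dose. Plants were at one- to two-leaf stage in submerged alluvial soil (4 cm depth), greenhouse 25-30° C.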

Scirpus juncoides [5] = experiment: Test Example 2: herbicidal activity, application during weed generation in submerged conditions (symbol B); conditions: Table 23; application herbicide amount 320 g/ha; grade 0-5 by criteria of Test Example 1
Procedure, shortened: as §2

Monochoria vaginalis [6] = experiment: Test Example 2: herbicidal activity, application during weed generation in submerged conditions (symbol C); conditions: Table 23; application herbicide amount 320 g/ha; grade 0-5 by criteria of Test Example 1
Procedure, shortened: as §2

[7] = system: Echinochloa crus-galli var. crus-galli; experiment: Test Example 3: herbicidal effect by foliage application, Wagner pot (symbol H); conditions: application herbicide amount 320 g/ha
Procedure, shortened: (§3)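 Foliar spray of a water-diluted emulsion at a predetermined herbicide amount, applied to 14-day-old plants. Seedlings were raised in flooded alluvial soil (0.1–0.5 cm water) at 25–30 °C in a greenhouse. Injury was rated after 3 weeks against fixed criteria.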

Leptochloa chinensis = experiment: Test Example 3: herbicidal effect by foliage application, Wagner pot (symbol D); conditions: application herbicide amount 320 g/ha
Procedure, shortened: as §3

Cyperus difformis = experiment: Test Example 3: herbicidal effect by foliage application, Wagner pot (symbol E); conditions: application herbicide amount 320 g/ha
Procedure, shortened: as §3

[8] = system: directly sowed rice plant; experiment: Test Example 3: effect on crop by foliage application, Wagner pot (symbol b); conditions: application herbicide amount 320 g/ha
Procedure, shortened: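 Wagner pot (1/10000 are), alluvial soil, submerged 0.1–0.5 cm; sown E. crus-galli var. crus-galli, L. chinensis, C. difformis, rice; greenhouse 25–30 °C.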

Digitaria ciliaris = experiment: Test Example 5: herbicidal effect by foliage application, plastic box (symbol F); conditions: 320 g/ha, 3 weeks after application
Procedure, shortened: (§4)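 Visual herbicidal score, taken three weeks post-application, of seedlings sprayed on the foliage with water-diluted emulsion at a predetermined amount; plants were 14 days old, greenhouse-raised at 25° C. to 30° C.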

Setaria viridis = experiment: Test Example 5: herbicidal effect by foliage application, plastic box (symbol G); conditions: 320 g/ha, 3 weeks after application
Procedure, shortened: as §4

[9] = system: Echinochloa crus-galli var. crus-galli; experiment: Test Example 5: herbicidal effect by foliage application, plastic box (symbol H); conditions: 320 g/ha, 3 weeks after application
Procedure, shortened: as §4

Avena fatua = experiment: Test Example 5: herbicidal effect by foliage application, plastic box (symbol I); conditions: 320 g/ha, 3 weeks after application
Procedure, shortened: as §4

Alopecurus myosuroides = experiment: Test Example 5: herbicidal effect by foliage application, plastic box (symbol J); conditions: 320 g/ha, 3 weeks after application
Procedure, shortened: as §4

Lolium multiflorum Lam. = experiment: Test Example 5: herbicidal effect by foliage application, plastic box (symbol K); conditions: 320 g/ha, 3 weeks after application
Procedure, shortened: as §4

Apera spica-venti = experiment: Test Example 5: herbicidal effect by foliage application, plastic box (symbol L); conditions: 320 g/ha, 3 weeks after application
Procedure, shortened: as §4

Abutilon theophrasti = experiment: Test Example 5: herbicidal effect by foliage application, plastic box (symbol M); conditions: 320 g/ha, 3 weeks after application
Procedure, shortened: as §4

Amaranthus retroflexus = experiment: Test Example 5: herbicidal effect by foliage application, plastic box (symbol N); conditions: 320 g/ha, 3 weeks after application
Procedure, shortened: as §4

Chenopodium album = experiment: Test Example 5: herbicidal effect by foliage application, plastic box (symbol O); conditions: 320 g/ha, 3 weeks after application
Procedure, shortened: as §4

Stellaria media = experiment: Test Example 5: herbicidal effect by foliage application, plastic box (symbol P); conditions: 320 g/ha, 3 weeks after application
Procedure, shortened: as §4

Galium spurium = experiment: Test Example 5: herbicidal effect by foliage application, plastic box (symbol Q); conditions: 320 g/ha, 3 weeks after application
Procedure, shortened: as §4

Veronica persica = experiment: Test Example 5: herbicidal effect by foliage application, plastic box (symbol R); conditions: 320 g/ha, 3 weeks after application
Procedure, shortened: as §4

corn = experiment: Test Example 5: effect on crop by foliage application, plastic box (symbol c); conditions: 320 g/ha, 3 weeks after application
Procedure, shortened: (§5)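 Greenhouse test at 25° C. to 30° C. Seeds of crops and weeds were spot-sown in boxes of sterilized diluvial soil under roughly 1.5 cm soil cover, then grown for foliage treatment.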

soybean = experiment: Test Example 5: effect on crop by foliage application, plastic box (symbol d); conditions: 320 g/ha, 3 weeks after application
Procedure, shortened: as §5

rice plant = experiment: Test Example 5: effect on crop by foliage application, plastic box (symbol b); conditions: 320 g/ha, 3 weeks after application
Procedure, shortened: as §5

wheat = experiment: Test Example 5: effect on crop by foliage application, plastic box (symbol e); conditions: 320 g/ha, 3 weeks after application
Procedure, shortened: as §5

beet = experiment: Test Example 5: effect on crop by foliage application, plastic box (symbol f); conditions: 320 g/ha, 3 weeks after application
Procedure, shortened: as §5

rapeseed = experiment: Test Example 5: effect on crop by foliage application, plastic box (symbol g); conditions: 320 g/ha, 3 weeks after application
Procedure, shortened: as §5

`CON=C(C)CC1CC(OC(=O)N(C)C)=C(c2c(C)cc(-c3ccc(Cl)cc3)cc2OC)C1=O` (stereo not drawn) [6-081] was tested, and the “Herbicidal effect grade, A: Echinochloa oryzacola Vasing.” value [1] was 5 (Herbicidal ratio of 90% or more (almost completely withered)), the “Herbicidal effect grade, B: Scirpus juncoides” value (“Herbicidal effect grade, B” for short) (Scirpus juncoides [2]) was 0 (Herbicidal ratio of 5% or lower (almost no effect)) and the “Herbicidal effect grade, C: Monochoria vaginalis” value (“Herbicidal effect grade, C” for short) (Monochoria vaginalis [3]) was 1 (Herbicidal ratio of 5% or higher and lower than 20%). The “Effect grade on crop, a: transplanted rice plant” value (transplanted rice plant) was 3 (Herbicidal ratio of 40% or higher and lower than 70%), the “Herbicidal effect grade, A: Echinochloa oryzacola Vasing.” value [4] was 1 (Herbicidal ratio of 5% or higher and lower than 20%) and the “Herbicidal effect grade, B” value (Scirpus juncoides [5]) was 0 (Herbicidal ratio of 5% or lower (almost no effect)). For the same compound, the “Herbicidal effect grade, C” value (Monochoria vaginalis [6]) was 0 (Herbicidal ratio of 5% or lower (almost no effect)), the “herbicidal effect on H (Echinochloa crus-galli var. crus-galli), grade 0-5” value [7] was 1 (Herbicidal ratio of 5% or higher and lower than 20%) and the “herbicidal effect on D (Leptochloa chinensis), grade 0-5” value (Leptochloa chinensis) was 3 (Herbicidal ratio of 40% or higher and lower than 70%). For the same compound, the “herbicidal effect on E, grade 0-5” value (Cyperus difformis) was 0 (Herbicidal ratio of 5% or lower (almost no effect)), the “effect on crop b (directly sowed rice plant), grade 0-5” value [8] was 0 (Herbicidal ratio of 5% or lower (almost no effect)) and the “F: Digitaria ciliaris, herbicidal effect (criteria of Test Example 1)” value (Digitaria ciliaris) was 4 (Herbicidal ratio of 70% or higher and lower than 90%). For the same compound, the “G: Setaria viridis, herbicidal effect (criteria of Test Example 1)” value (Setaria viridis) was 0 (Herbicidal ratio of 5% or lower (almost no effect)), the “H: Echinochloa crus-galli var. crus-galli, herbicidal effect (criteria of Test Example 1)” value [9] was 4 (Herbicidal ratio of 70% or higher and lower than 90%) and the “I: Avena fatua, herbicidal effect (criteria of Test Example 1)” value (Avena fatua) was 5 (Herbicidal ratio of 90% or more (almost completely withered)). For the same compound, the “J: Alopecurus myosuroides, herbicidal effect (criteria of Test Example 1)” value (Alopecurus myosuroides) was 3 (Herbicidal ratio of 40% or higher and lower than 70%), the “K: Lolium multiflorum Lam., herbicidal effect (criteria of Test Example 1)” value (Lolium multiflorum Lam.) was 4 (Herbicidal ratio of 70% or higher and lower than 90%) and the “L: Apera spica-venti, herbicidal effect (criteria of Test Example 1)” value (Apera spica-venti) was 5 (Herbicidal ratio of 90% or more (almost completely withered)). The “M: Abutilon theophrasti, herbicidal effect (criteria of Test Example 1)” value (Abutilon theophrasti) was 0 (Herbicidal ratio of 5% or lower (almost no effect)), the “N: Amaranthus retroflexus, herbicidal effect (criteria of Test Example 1)” value (Amaranthus retroflexus) was 0 (Herbicidal ratio of 5% or lower (almost no effect)) and the “O: Chenopodium album, herbicidal effect (criteria of Test Example 1)” value (Chenopodium album) was 0 (Herbicidal ratio of 5% or lower (almost no effect)). For the same compound, the “P: Stellaria media, herbicidal effect (criteria of Test Example 1)” value (Stellaria media) was 0 (Herbicidal ratio of 5% or lower (almost no effect)), the “Q: Galium spurium, herbicidal effect (criteria of Test Example 1)” value (Galium spurium) was 0 (Herbicidal ratio of 5% or lower (almost no effect)) and the “R: Veronica persica, herbicidal effect (criteria of Test Example 1)” value (Veronica persica) was 0 (Herbicidal ratio of 5% or lower (almost no effect)). For the same compound, the “c: corn, effect on crop (criteria of Test Example 1)” value (corn) was 5 (Herbicidal ratio of 90% or more (almost completely withered)), the “d: soybean, effect on crop (criteria of Test Example 1)” value (soybean) was 0 (Herbicidal ratio of 5% or lower (almost no effect)) and the “b: directly sowed rice plant, effect on crop (criteria of Test Example 1)” value (rice plant) was 0 (Herbicidal ratio of 5% or lower (almost no effect)). The “e: wheat, effect on crop (criteria of Test Example 1)” value (wheat) was 3 (Herbicidal ratio of 40% or higher and lower than 70%), the “f: beet, effect on crop (criteria of Test Example 1)” value (beet) was 0 (Herbicidal ratio of 5% or lower (almost no effect)) and the “g: rapeseed, effect on crop (criteria of Test Example 1)” value (rapeseed) was 3 (Herbicidal ratio of 40% or higher and lower than 70%).
With `CON=C(C)CC1CC(O)=C(c2c(C)cc(-c3ccc(SC)cc3)cc2C)C1=O` (mixture of isomers) [6-030] the “Herbicidal effect grade, A: Echinochloa oryzacola Vasing.” value [1] was 3 (Herbicidal ratio of 40% or higher and lower than 70%), the “Herbicidal effect grade, B” value (Scirpus juncoides [2]) was 0 (Herbicidal ratio of 5% or lower (almost no effect)) and the “Herbicidal effect grade, C” value (Monochoria vaginalis [3]) was 0 (Herbicidal ratio of 5% or lower (almost no effect)). For the same compound, the “Effect grade on crop, a: transplanted rice plant” value (transplanted rice plant) was 2 (Herbicidal ratio of 20% or higher and lower than 40%), the “Herbicidal effect grade, A: Echinochloa oryzacola Vasing.” value [4] was 2 (Herbicidal ratio of 20% or higher and lower than 40%) and the “Herbicidal effect grade, B” value (Scirpus juncoides [5]) was 0 (Herbicidal ratio of 5% or lower (almost no effect)). The “Herbicidal effect grade, C” value (Monochoria vaginalis [6]) was 0 (Herbicidal ratio of 5% or lower (almost no effect)), the “herbicidal effect on H (Echinochloa crus-galli var. crus-galli), grade 0-5” value [7] was 4 (Herbicidal ratio of 70% or higher and lower than 90%) and the “herbicidal effect on D (Leptochloa chinensis), grade 0-5” value (Leptochloa chinensis) was 5 (Herbicidal ratio of 90% or more (almost completely withered)). For the same compound, the “herbicidal effect on E, grade 0-5” value (Cyperus difformis) was 0 (Herbicidal ratio of 5% or lower (almost no effect)), the “effect on crop b (directly sowed rice plant), grade 0-5” value [8] was 2 (Herbicidal ratio of 20% or higher and lower than 40%) and the “F: Digitaria ciliaris, herbicidal effect grade” value (Digitaria ciliaris) was 4 (Herbicidal ratio of 70% or higher and lower than 90%). The “G: Setaria viridis, herbicidal effect grade” value (Setaria viridis) was 4 (Herbicidal ratio of 70% or higher and lower than 90%), the “H: Echinochloa crus-galli var. crus-galli, herbicidal effect grade” value [9] was 1 (Herbicidal ratio of 5% or higher and lower than 20%) and the “I: Avena fatua, herbicidal effect grade” value (Avena fatua) was 0 (Herbicidal ratio of 5% or lower (almost no effect)). For the same compound, the “J: Alopecurus myosuroides, herbicidal effect grade” value (Alopecurus myosuroides) was 1 (Herbicidal ratio of 5% or higher and lower than 20%), the “K: Lolium multiflorum Lam., herbicidal effect grade” value (Lolium multiflorum Lam.) was 1 (Herbicidal ratio of 5% or higher and lower than 20%) and the “L: Apera spica-venti, herbicidal effect grade” value (Apera spica-venti) was 0 (Herbicidal ratio of 5% or lower (almost no effect)). The “M: Abutilon theophrasti, herbicidal effect grade” value (Abutilon theophrasti) was 0 (Herbicidal ratio of 5% or lower (almost no effect)), the “N: Amaranthus retroflexus, herbicidal effect grade” value (Amaranthus retroflexus) was 0 (Herbicidal ratio of 5% or lower (almost no effect)) and the “O: Chenopodium album, herbicidal effect grade” value (Chenopodium album) was 0 (Herbicidal ratio of 5% or lower (almost no effect)). For the same compound, the “P: Stellaria media, herbicidal effect grade” value (Stellaria media) was 0 (Herbicidal ratio of 5% or lower (almost no effect)), the “Q: Galium spurium, herbicidal effect grade” value (Galium spurium) was 0 (Herbicidal ratio of 5% or lower (almost no effect)) and the “R: Veronica persica, herbicidal effect grade” value (Veronica persica) was 0 (Herbicidal ratio of 5% or lower (almost no effect)). The “c: corn, effect on crop grade” value (corn) was 0 (Herbicidal ratio of 5% or lower (almost no effect)), the “d: soybean, effect on crop grade” value (soybean) was 0 (Herbicidal ratio of 5% or lower (almost no effect)) and the “b: directly sowed rice plant, effect on crop grade” value (rice plant) was 1 (Herbicidal ratio of 5% or higher and lower than 20%). For the same compound, the “e: wheat, effect on crop grade” value (wheat) was 0 (Herbicidal ratio of 5% or lower (almost no effect)), the “f: beet, effect on crop grade” value (beet) was 0 (Herbicidal ratio of 5% or lower (almost no effect)) and the “g: rapeseed, effect on crop grade” value (rapeseed) was 3 (Herbicidal ratio of 40% or higher and lower than 70%).

Reference: patent US11000033B2, “Ketone or oxime compound, and herbicide” (NISSAN CHEMICAL CORPORATION, priority 2014, dated 2021)
